Assay results: publication PMC8119482, “A novel dual HDAC and HSP90 inhibitor, MPT0G449, downregulates oncogenic pathways in human acute leukemia in vitro and in vivo” (Oncogenesis, 2021)

Biological target: T1, HDAC6 (Homo sapiens, UniProt Q9UBN7)
T1 sequence (Q9UBN7 1-1215): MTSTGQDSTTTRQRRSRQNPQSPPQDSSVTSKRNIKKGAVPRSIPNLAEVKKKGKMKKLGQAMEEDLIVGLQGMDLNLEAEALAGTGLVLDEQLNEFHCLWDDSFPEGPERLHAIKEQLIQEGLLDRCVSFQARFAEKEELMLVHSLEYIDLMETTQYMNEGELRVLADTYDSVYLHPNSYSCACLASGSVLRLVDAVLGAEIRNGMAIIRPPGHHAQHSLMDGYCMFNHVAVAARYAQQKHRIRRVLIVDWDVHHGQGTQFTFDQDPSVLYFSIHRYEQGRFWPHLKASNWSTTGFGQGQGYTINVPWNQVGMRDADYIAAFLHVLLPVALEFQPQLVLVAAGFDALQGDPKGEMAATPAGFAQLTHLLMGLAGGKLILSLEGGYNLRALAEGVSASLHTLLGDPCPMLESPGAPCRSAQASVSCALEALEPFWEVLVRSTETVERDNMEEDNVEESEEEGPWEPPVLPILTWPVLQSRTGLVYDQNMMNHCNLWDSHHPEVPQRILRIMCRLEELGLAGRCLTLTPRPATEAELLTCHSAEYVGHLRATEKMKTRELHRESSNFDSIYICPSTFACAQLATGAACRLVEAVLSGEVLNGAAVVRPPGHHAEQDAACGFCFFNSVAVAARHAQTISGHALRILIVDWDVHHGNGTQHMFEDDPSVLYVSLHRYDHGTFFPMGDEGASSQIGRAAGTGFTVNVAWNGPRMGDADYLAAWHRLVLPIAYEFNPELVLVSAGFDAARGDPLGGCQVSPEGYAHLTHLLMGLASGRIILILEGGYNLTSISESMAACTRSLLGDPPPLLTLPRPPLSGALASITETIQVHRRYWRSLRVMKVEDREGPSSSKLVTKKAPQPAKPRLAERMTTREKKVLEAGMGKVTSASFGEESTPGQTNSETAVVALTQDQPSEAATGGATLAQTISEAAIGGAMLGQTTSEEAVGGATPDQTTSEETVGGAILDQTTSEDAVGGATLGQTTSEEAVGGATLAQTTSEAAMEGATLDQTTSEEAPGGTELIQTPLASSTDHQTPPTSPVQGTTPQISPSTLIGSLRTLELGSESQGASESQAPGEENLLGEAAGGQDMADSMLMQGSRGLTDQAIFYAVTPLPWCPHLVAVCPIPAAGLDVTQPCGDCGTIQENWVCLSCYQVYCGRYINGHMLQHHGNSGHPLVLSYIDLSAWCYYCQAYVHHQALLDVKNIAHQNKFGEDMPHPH
Experiment: HDAC isoform activity assay (Reaction Biology Corp.); values not shown in main text
Type: biochemical

CC(C)c1cc(C(=O)N(C)c2ccc(NC(=O)CCCCCCCC(=O)NO)cc2)c(O)cc1O [compound 26, MPT0G449]
HDAC isoform activity assay (Reaction Biology Corp.); values not shown in main t: HDAC6 was selected because MPT0G499 exhibited the most potent inhibition.
